Measured values from patent EP4596574A1, “GLP-1/GCG/GIP TRIPLE-RECEPTOR AGONIST AND USE THEREOF” (Sunshine Lake Pharma Co., Ltd., priority 2022, dated 2024).
Marks after values point to notes of the source that are not given here.

How the values were obtained:
[1] = Glucose tolerance assessment in normal C57BL/6 mice (Example 4); assay type: in vivo; conditions: 3 nmol/kg s.c. single dose, 24 h after administration
Experimental: (§1) Twelve hours after the single administration, the animals were fasted for 12 hours and had free access to water. Blood was collected from the tail vein to determine the basal blood glucose level of each group of animals, and then 2 g/kg glucose solution was injected intraperitoneally. Blood glucose was tested at 15, 30, 60, and 90 min after glucose administration. The blood glucose concentration-time curve was drawn according to the blood glucose values measured at different time points, and the AUC0~90min of each dose group was calculated as shown in Table 4 and Figure 1. Table 4: Effects of single administration of HEC-PT74, HEC-PT75, HEC-PT77, HEC-PT78, HEC-PT80, and HEC-PT82 on glucose tolerance in normal C57 mice 24 h after administration

[2] = Long-term repeated administration in diet-induced obese C57BL/6 mice (DIO); assay type: in vivo, C57/BL6 mice
Excerpt: Experimental methods: C57/BL6 mice were randomly divided into a normal group (NFD) and a model group (HFD) at the fifth week of age. The normal group was fed with ordinary maintenance feed, while the other groups were fed with high-fat feed D12492. The body weight and food intake of mice were monitored every 3 weeks. After 16 weeks of feeding, the body weights of mice in the model group and the normal group were (49.0±2.3) g and (31.0±2.0) g, respectively, and the difference between the two groups was statistically significant. […] Body weight and food intake were measured before each administration. After 3 weeks of administration, an intraperitoneal glucose tolerance test was performed. The mice were slaughtered and samples were collected 72 h after the last administration. The liver weight was recorded, and the liver pathological conditions and blood biochemical indexes of each group were tested.

[3] = Glucose tolerance assessment in normal C57BL/6 mice (Example 5); assay type: in vivo; conditions: 3 nmol/kg s.c. single dose, 24 h after administration
Experimental: as §1, with “Table 5” for “Table 4”, “Figure 2.” for “Figure 1.”, “Table 5:” for “Table 4:”, “of HEC-PT86, HEC-PT96, HEC-PT112, HEC-PT113, HEC-PT114,” for “of HEC-PT74, HEC-PT75, HEC-PT77, HEC-PT78, HEC-PT80,”, “and HEC-PT119” for “and HEC-PT82”

[4] = In vivo efficacy evaluation in db/db mouse model (blood glucose); set-up: species or system db/db mice; conditions: db/db mice
Experimental: Blood glucose was tested before each administration.

[5] = 15 min after 2 g/kg glucose i.p.
[6] = 30 min after 2 g/kg glucose i.p.
[7] = 60 min after 2 g/kg glucose i.p.
[8] = 90 min after 2 g/kg glucose i.p.
[9] = basal before 2 g/kg glucose i.p.
[10] = blood glucose AUC, 2 g/kg glucose i.p.
[11] = 10 nmol/kg s.c. once every 3 days, D7
[12] = 10 nmol/kg s.c. once every 3 days, D10
[13] = 10 nmol/kg s.c. once every 3 days, D13
[14] = 10 nmol/kg s.c. once every 3 days, D16
[15] = 10 nmol/kg s.c. once every 3 days, D19
[16] = 10 nmol/kg s.c. once every 3 days, D22
[17] = 10 nmol/kg s.c. once every 3 days, D25
[18] = 10 nmol/kg s.c. once every 3 days, D28
[19] = long-term administration 10 nmol/kg, 72 h after the last administration
[20] = long-term administration 10 nmol/kg, blood biochemical index

CC[C@H](C)[C@H](NC(=O)[C@H](CC(C)C)NC(=O)[C@H](Cc1c[nH]c2ccccc12)NC(=O)[C@H](CCC(N)=O)NC(=O)[C@@H](NC(=O)[C@H](Cc1ccccc1)NC(=O)[C@H](C)NC(=O)[C@H](CCCCNC(=O)COCCOCCNC(=O)COCCOCCNC(=O)CC[C@H](NC(=O)CCCCCCCCCCCCCCCCCCC(=O)O)C(=O)O)NC(=O)[C@H](CCC(N)=O)NC(=O)[C@H](C)NC(=O)[C@@H](NC(=O)[C@H](CCCCN)NC(=O)[C@H](CC(=O)O)NC(=O)[C@H](CC(C)C)NC(=O)C(C)(C)NC(=O)[C@@H](NC(=O)[C@H](CO)NC(=O)[C@H](Cc1ccc(O)cc1)NC(=O)[C@H](CC(=O)O)NC(=O)[C@H](CO)NC(=O)[C@@H](NC(=O)[C@H](Cc1ccccc1)NC(=O)[C@@H](NC(=O)CNC(=O)[C@H](CCC(=O)O)NC(=O)C(C)(C)NC(=O)[C@@H](N)Cc1ccc(O)cc1)[C@@H](C)O)[C@@H](C)O)[C@@H](C)CC)[C@@H](C)CC)C(C)C)C(=O)N[C@@H](C)C(=O)NCC(=O)NCC(=O)N1CCC[C@H]1C(=O)N[C@@H](CO)C(=O)N[C@@H](CO)C(=O)NCC(=O)N[C@@H](C)C(=O)N1CCC[C@H]1C(=O)N1CCC[C@H]1C(=O)N1CCC[C@H]1C(=O)N[C@@H](CO)C(N)=O [LY3298176, tirzepatide, reference compound]
Blood glucose level (mM) 15 min [1, 5]: 12.6 ± 3.5 mM
Blood glucose level (mM) 30 min [1, 6]: 9.5 ± 3.3 mM
Blood glucose level (mM) 60 min [1, 7]: 7.9 ± 1.4 mM
Blood glucose level (mM) 90 min [1, 8]: 6.5 ± 1.3 mM
Blood glucose level (mM) 0 min [1, 9]: 4.0 ± 0.8 mM
AUC0-90 min [1, 10]: 768.2±171.6^a
Cumulative food intake (g/pcs) D7 [2, 11]: 10.2 g/pcs
Weight gain rate (%) D7 [2, 11]: -15.4±2.9%
Cumulative food intake (g/pcs) D10 [2, 12]: 13.0 g/pcs
Weight gain rate (%) D10 [2, 12]: -19.6±3.2%
Cumulative food intake (g/each) D13 [2, 13]: 16.6 g/each
Weight gain rate (%) D13 [2, 13]: -24.3±6.4%
Cumulative food intake (g/each) D16 [2, 14]: 22.1 g/each
Weight gain rate (%) D16 [2, 14]: -23.4±5.1%
Cumulative food intake (g/each) D19 [2, 15]: 27.9 g/each
Weight gain rate (%) D19 [2, 15]: -26.0±7.3%
Cumulative food intake (g/each) D22 [2, 16]: 34.2 g/each
Weight gain rate (%) D22 [2, 16]: -26.7±7.7%
Cumulative food intake (g/each) D25 [2, 17]: 40.6 g/each
Weight gain rate (%) D25 [2, 17]: -27.7±7.0%
Cumulative food intake (g/each) D28 [2, 18]: 48.1 g/each
Weight gain rate (%) D28 [2, 18]: -28.2±7.3%
Cumulative food intake (g/each) D30 ([2]; 10 nmol/kg s.c. once every 3 days, D30): 51.9^a g/each
Weight gain rate (%) D31 ([2]; 10 nmol/kg s.c. once every 3 days, D31): -28.0±6.8^a %
Cumulative food intake (g/pcs) D0 ([2]; 10 nmol/kg s.c., D0): 2.7 g/pcs
Weight gain rate (%) D0 ([2]; 10 nmol/kg s.c., D0): 0.0±0.0%
Cumulative food intake (g/pcs) D1 ([2]; 10 nmol/kg s.c., D1): 3.0 g/pcs
Weight gain rate (%) D1 ([2]; 10 nmol/kg s.c., D1): -6.4±0.9%
Cumulative food intake (g/pcs) D2 ([2]; 10 nmol/kg s.c., D2): 3.8 g/pcs
Weight gain rate (%) D2 ([2]; 10 nmol/kg s.c., D2): -8.9±1.3%
Cumulative food intake (g/pcs) D3 ([2]; 10 nmol/kg s.c., D3): 5.1 g/pcs
Weight gain rate (%) D3 ([2]; 10 nmol/kg s.c., D3): -8.7±1.9%
Cumulative food intake (g/pcs) D4 ([2]; 10 nmol/kg s.c., D4): 7.4 g/pcs
Weight gain rate (%) D4 ([2]; 10 nmol/kg s.c., D4): -7.7±2.1%
Liver/g [2, 19]: 1.0±0.1^a g
Weight/g [2, 19]: 32.6±3.9^a g
ALT (U/L) [2, 20]: 30.9±3.1^a U/L
AST (U/L) [2, 20]: 110.3±17.6^a U/L
CHOL (mmol/L) [2, 20]: 3.3±0.5^a mmol/L
TRIGL (mmol/L) [2, 20]: 0.6±0.1^a mmol/L
Blood glucose level (mM) 15 min [3, 5]: 13.6 ± 3.1 mM
Blood glucose level (mM) 30 min [3, 6]: 9.9 ± 3.2 mM
Blood glucose level (mM) 60 min [3, 7]: 6.9 ± 0.9 mM
Blood glucose level (mM) 90 min [3, 8]: 7.2 ± 0.9 mM
Blood glucose level (mM) 0 min [3, 9]: 4.9 ± 1.0 mM
AUC0-90 min [3, 10]: 776.9±125.6^a
Random blood glucose (mM) D0 ([4]; 10 nmol/kg s.c. once every three days, D0 (before first dose)): 26.1 ± 3.8 mM
Random blood glucose (mM) D3 ([4]; 10 nmol/kg s.c. once every three days, D3): 22.4 ± 3.7 mM
Random blood glucose (mM) D4 ([4]; 10 nmol/kg s.c. once every three days, D4): 22.1 ± 4.0 mM
Random blood glucose (mM) D5 ([4]; 10 nmol/kg s.c. once every three days, D5): 24.2 ± 3.9 mM
Random blood glucose (mM) D6 ([4]; 10 nmol/kg s.c. once every three days, D6): 25.3 ± 4.0 mM
Random blood glucose (mM) D7 ([4]; 10 nmol/kg s.c. once every three days, D7): 23.5 ± 2.6 mM
Random blood glucose (mM) D10 ([4]; 10 nmol/kg s.c. once every three days, D10): 18.5 ± 5.1 mM
Random blood glucose (mM) D13 ([4]; 10 nmol/kg s.c. once every three days, D13): 20.1 ± 5.8 mM
Random blood glucose (mM) D16 ([4]; 10 nmol/kg s.c. once every three days, D16): 18.6 ± 4.0 mM
Random blood glucose (mM) D19 ([4]; 10 nmol/kg s.c. once every three days, D19): 18.7 ± 3.8 mM
Random blood glucose (mM) D22 ([4]; 10 nmol/kg s.c. once every three days, D22): 16.2 ± 4.6 mM
Random blood glucose (mM) D25 ([4]; 10 nmol/kg s.c. once every three days, D25): 16.6±3.7^a mM
Random blood glucose (mM) 6 h ([4]; 10 nmol/kg s.c., 6 h): 16.8 ± 5.0 mM
Random blood glucose (mM) 24 h ([4]; 10 nmol/kg s.c., 24 h): 13.0 ± 6.7 mM
Random blood glucose (mM) 48 h ([4]; 10 nmol/kg s.c., 48 h): 19.9 ± 5.6 mM
